According to patent US20110038920A1, “WOUND HEALING COMPOSITIONS AND TREATMENTS” (priority 2008, published 2011):
Where a name gives a salt, the structure may show the parent alone.

Key:
[1] = tested on: OPN expression in Swiss 3T3 fibroblasts exposed to macrophage CM; assay: Macrophage-CM induction of OPN in fibroblasts with inhibitors (Western blot); format: cell-based; settings: co-treatment; Gleevec 2-20 μM, PDGF-Rβ nAb 2 μg/ml, wortmannin 100 nM
Experimental: (§1) Protein samples (20 μg; collected in T-PER® Reagent; PIERCE Biotechnology) were separated on Tris-Glycine Gels (Invitrogen), transferred to PVDF, and blotted according to standard protocols (antibody details are provided above).
(§2) Swiss 3T3, J774.1 macrophages, and RBL mast cells were cultured in DMEM+10% fetal calf serum. Primary neutrophils were harvested by peritoneal lavage 4 h post-thioglycollate-induced peritonitis, and primary macrophages were derived from mouse bone marrow and activated with LPS (500 ng/ml).

[2] = tested on: pulmonary and dermal fibrosis; settings: Distler et al. 2007; Aono et al. 2005; cited from earlier work
[3] = tested on: OPN expression in Swiss 3T3 fibroblasts; assay: Induction of OPN expression in fibroblasts by growth factors/cytokines (Western blot); format: cell-based; settings: for ability to upregulate OPN expression in Swiss 3T3s: 8 h, PDGF-BB 20, EGF 100, TGFβ1 10, TGFβ3 10, IL-6 50, TNFα 10 ng/ml
Experimental: as §1, §2

Mouse OPN mRNA = assay: AS ODN cleavage of OPN mRNA in vitro (RNase H); format: biochemical; settings: ODN final concentration 2 μM, 20 min at 37° C., compared among the AS ODNs
Experimental: Dz cleavage of OPN mRNA in vitro: Mouse OPN mRNA was transcribed from the IMAGE clone (GenBank, BC057858; (Geneservice Ltd), and resulting RNA was purified with RNeasy MinElute Cleanup Kit (Qiagen). RNA (0.3 μg/5 μl) was incubated in the cleavage buffer (10 mM MgCl2, 5 mM Tris (pH 7.5), 150 mM NaCl) for 5 min at 37° C., as was 5 μl of Dzs (40 μM; MWG Biotech). These were then combined and incubated for 1 h. RNA products were separated on 2% formaldehyde-agarose gel and stained with SYBR Gold nucleic acid gel stain (Invitrogen) to determine cleaving efficiency (FIG. 6 A).
AS ODN cleavage in vitro: To evaluate the cleaving efficiency of the AS ODNs, transcribed RNA (0.3 μg) was incubated with control or OPN AS ODNs (final concentration of 2 μM; MWG Biotech), RNase H (Invitrogen. Corp.), and RNasin (to inhibit non-specific RNA degradation; Promega) in a final volume 10 μl of cleavage buffer, and incubated for 20 min at 37° C. RNA products were separated on 2% formaldehyde-agarose gel and stained with SYBR Gold nucleic acid gel stain (Invitrogen Corp.) to determine cleaving efficiency (FIG. 6 B).

chronic ulcers = settings: cited from earlier work

Compound: Cc1ccc(NC(=O)c2ccc(CN3CCN(C)CC3)cc2)cc1Nc1nccc(-c2cccnc2)n1 [Gleevec, imatinib mesylate]
- OPN expression during fibroblast exposure to macrophage CM [1]: significantly reduced
- pulmonary and dermal fibrosis [2]: reduces pulmonary and dermal fibrosis

Compound: EGF: growth factor, R&D Systems (NSDSECPLSHDGYCLHDGVCMYIEALDKYACNCVVGYIGERCQYRDLKWWELR; Epidermal growth factor; UniProt P01133 971-1023, looked up)
- ability to upregulate OPN expression in Swiss 3T3s [3]: not

Compound: IL-6: cytokine, BioSource
- ability to upregulate OPN expression in Swiss 3T3s [3]: not

Compound: OPN AS ODN (943): osteopontin antisense oligodeoxynucleotide actatcgatcacatccg (SEQ.ID.NO: 164) (antisense ACTATCGATCACATCCG; DNA, backbone not given here)
- effectiveness at cleaving OPN mRNA (Mouse OPN mRNA): most effective

Compound: PDGF-BB: growth factor, R&D Systems
- ability to upregulate OPN expression in Swiss 3T3s [3]: significantly upregulate
- time of peak OPN levels after initial exposure ([3]; Swiss 3T3 fibroblasts, 20 ng/ml PDGF-BB): about 8 h
- minimum window of exposure required for OPN expression ([3]; Swiss 3T3 fibroblasts, 20 ng/ml PDGF-BB, analysed at 8 h): ≥ 2 h
- granulation tissue and scarring (chronic ulcers; in vivo): increased granulation tissue and scarring
- healing of chronic ulcers (chronic ulcers; topical application to wounds (Chan et al. 2006)): accelerate the healing

Compound: TGFβ1: growth factor/cytokine, BioVision
- ability to upregulate OPN expression in Swiss 3T3s [3]: not
